Tests used:
[1] = system: Puccinia recondita f. Sp. Tritici; assay: Fungicidal activity against Puccinia recondita f. sp. tritici / wheat / leaf disc preventative (brown rust); assay type: in vivo; settings: foliar, 200 ppm in the applied formulation, wheat leaf segments, preventative, compared to untreated control leaf disks, read-out: disease control
Outline: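 Compound application precedes infection: segments of wheat cv. Kanzler, sprayed at 200 ppm, are inoculated with a spore suspension after 1 day. Incubation is at 19° C. with 75% relative humidity and 12 h light/12 h darkness, and control versus untreated leaves is rated 7 to 9 days post-application.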

[2] = system: Puccinia recondita f. Sp. Tritici; assay: Fungicidal activity against Puccinia recondita f. sp. tritici / wheat / leaf disc curative (brown rust); assay type: in vivo; settings: foliar, 24 h, 200 ppm in the applied formulation, wheat leaf segments, curative (applied 1 day after inoculation), compared to untreated control leaf disks, read-out: disease control
Outline: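 Segments of wheat cv. Kanzler were laid on agar and inoculated with a spore suspension of the rust, then held in darkness at 19° C and 75% relative humidity. One day later the water-diluted formulated compound was applied, with incubation continued under a 12 h light/dark cycle.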

[3] = system: Phakopsora Pachyrhizi; assay: Fungicidal activity against Phakopsora pachyrhizi / soybean / leaf disc preventative (Asian soybean rust); assay type: in vivo; settings: foliar, 200 ppm in the applied formulation, soybean leaf disks, compared to untreated control leaf disks, read-out: disease control
Outline: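 Preventative soybean leaf-disc test: discs on water agar sprayed with diluted formulated compound, inoculated one day later with spores on the lower surface. Held 24–36 h dark at 20°C, 75% rh, then 12 h light/day; percent disease control versus untreated discs scored 12–14 days after application.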

[4] = system: Glomerella lagenarium (Colletotrichum lagenarium); assay: Fungicidal activity against Glomerella lagenarium (Colletotrichum lagenarium) liquid culture / cucumber / preventative (anthracnose); assay type: cell-based; settings: Colletotrichum orbiculare; 20 ppm in the applied formulation; liquid culture (PDB), growth inhibition measured photometrically after 3 to 4 days; compared to untreated control; read-out: disease control
Outline: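 Photometric read-out of fungal growth after 2–7 days, expressed as percent antifungal activity versus untreated check. Cryo-stored conidia in PDB; compound at 20 ppm; dark, 24 °C, 96% RH.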

O=C(CC1CC1)N(Cc1ccc(-c2noc(C(F)(F)F)n2)cc1)C1CC1 [Compound 1.99, N,2-dicyclopropyl-N-[[4-[5-(trifluoromethyl)-1,2,4-oxadiazol-3-yl]phenyl]methyl]-acetamide]
≥ 80%: pest or weed control at 200 ppm [1] | pest or weed control at 200 ppm [2] | pest or weed control at 200 ppm [3] | inhibition of growth at 20 ppm [4]

C=C(C)C(=O)N(Cc1ccc(-c2noc(C(F)(F)F)n2)cc1)CC1CC1 [Compound 1.229, N-(cyclopropylmethyl)-2-methyl-N-[[4-[5-(trifluoromethyl)-1,2,4-oxadiazol-3-yl]phenyl]methyl]-prop-2-enamide]
≥ 80%: pest or weed control at 200 ppm [1] | pest or weed control at 200 ppm [2] | pest or weed control at 200 ppm [3] | inhibition of growth at 20 ppm [4]

COCCC(=O)N(Cc1ccc(-c2noc(C(F)(F)F)n2)cc1)OC [Compound 1.31, N,3-dimethoxy-N-[[4-[5-(trifluoromethyl)-1,2,4-oxadiazol-3-yl]phenyl]methyl]-propanamide]
≥ 80%: pest or weed control at 200 ppm [1] | pest or weed control at 200 ppm [2] | pest or weed control at 200 ppm [3] | inhibition of growth at 20 ppm [4]

CON(Cc1ccc(-c2noc(C(F)(F)F)n2)c(F)c1)C(=O)C1CCCO1 (centres unmarked) [Compound 1.578, N-[[3-fluoro-4-[5-(trifluoromethyl)-1,2,4-oxadiazol-3-yl]phenyl]methyl]-N-methoxy-tetrahydrofuran-2-carboxamide]
≥ 80%: pest or weed control at 200 ppm [1] | pest or weed control at 200 ppm [2] | pest or weed control at 200 ppm [3] | inhibition of growth at 20 ppm [4]

CCON(Cc1ccc(-c2noc(C(F)(F)F)n2)cc1)C(=O)N(C)OC [Compound 3.7, 1-ethoxy-3-methoxy-3-methyl-1-[[4-[5-(trifluoromethyl)-1,2,4-oxadiazol-3-yl]phenyl]methyl]urea]
≥ 80%: pest or weed control at 200 ppm [1] | pest or weed control at 200 ppm [2] | pest or weed control at 200 ppm [3] | inhibition of growth at 20 ppm [4]

CC(C)N(Cc1ccc(-c2noc(C(F)(F)F)n2)cc1)C(=O)C1CCC1 [Compound 1.675, N-isopropyl-N-[[4-[5-(trifluoromethyl)-1,2,4-oxadiazol-3-yl]phenyl]methyl]-cyclobutane-carboxamide]
≥ 80%: pest or weed control at 200 ppm [1] | pest or weed control at 200 ppm [2] | pest or weed control at 200 ppm [3] | inhibition of growth at 20 ppm [4]

COCC(=O)N(CCO)Cc1ccc(-c2noc(C(F)(F)F)n2)cc1 [Compound 1.610, N-(2-hydroxyethyl)-2-methoxy-N-[[4-[5-(trifluoromethyl)-1,2,4-oxadiazol-3-yl]phenyl]methyl]-acetamide]
≥ 80%: pest or weed control at 200 ppm [1] | pest or weed control at 200 ppm [2] | pest or weed control at 200 ppm [3] | inhibition of growth at 20 ppm [4]

C=CCN(Cc1ccc(-c2noc(C(F)(F)F)n2)cc1)C(=O)COC [Compound 1.479, N-allyl-2-methoxy-N-[[4-[5-(trifluoromethyl)-1,2,4-oxadiazol-3-yl]phenyl]methyl]-acetamide]
≥ 80%: pest or weed control at 200 ppm [1] | pest or weed control at 200 ppm [2] | pest or weed control at 200 ppm [3] | inhibition of growth at 20 ppm [4]

C=CCN(Cc1ccc(-c2noc(C(F)(F)F)n2)cc1)C(=O)C1CC1 [Compound 1.494, N-allyl-N-[[4-[5-(trifluoromethyl)-1,2,4-oxadiazol-3-yl]phenyl]methyl]-cyclopropane-carboxamide]
≥ 80%: pest or weed control at 200 ppm [1] | pest or weed control at 200 ppm [2] | pest or weed control at 200 ppm [3] | inhibition of growth at 20 ppm [4]

CCN(Cc1ccc(-c2noc(C(F)(F)F)n2)cc1)C(=O)C(C)C [Compound 1.503]
≥ 80%: pest or weed control at 200 ppm [1] | pest or weed control at 200 ppm [2] | pest or weed control at 200 ppm [3] | inhibition of growth at 20 ppm [4]

CCC(=O)ON(Cc1ccc(-c2noc(C(F)(F)F)n2)cc1)C(=O)CC [Compound 1.760, [propanoyl-[[4-[5-(trifluoromethyl)-1,2,4-oxadiazol-3-yl)phenyl]methyl]-amino] propanoate]
≥ 80%: pest or weed control at 200 ppm [1] | pest or weed control at 200 ppm [2] | pest or weed control at 200 ppm [3] | inhibition of growth at 20 ppm [4]

CCC(C)C(=O)N(Cc1ccc(-c2noc(C(F)(F)F)n2)cc1)C(C)C (centres unmarked) [Compound 1.678, N-isopropyl-2-methyl-N-[[4-[5-(trifluoromethyl)-1,2,4-oxadiazol-3-yl]phenyl]methyl]-butanamide]
≥ 80%: pest or weed control at 200 ppm [1] | pest or weed control at 200 ppm [2] | pest or weed control at 200 ppm [3] | inhibition of growth at 20 ppm [4]

CCCN(Cc1ccc(-c2noc(C(F)(F)F)n2)cc1)C(=O)C1(C)CC1 [Compound 1.658, 1-methyl-N-propyl-N-[[4-[5-(trifluoromethyl)-1,2,4-oxadiazol-3-yl]phenyl]methyl]-cyclopropane-carboxamide]
≥ 80%: pest or weed control at 200 ppm [1] | pest or weed control at 200 ppm [2] | pest or weed control at 200 ppm [3] | inhibition of growth at 20 ppm [4]

C#CCN(Cc1ccc(-c2noc(C(F)(F)F)n2)cc1)C(=O)C1CCC1 [Compound 1.178, N-prop-2-ynyl-N-[[4-[5-(trifluoromethyl)-1,2,4-oxadiazol-3-yl]phenyl]methyl]-cyclobutane-carboxamide]
≥ 80%: pest or weed control at 200 ppm [1] | pest or weed control at 200 ppm [2] | pest or weed control at 200 ppm [3] | inhibition of growth at 20 ppm [4]

C#CCN(Cc1ccc(-c2noc(C(F)(F)F)n2)cc1)C(=O)C(C)(C)CCl [Compound 1.176, 3-chloro-2,2-dimethyl-N-prop-2-ynyl-N-[[4-[5-(trifluoromethyl)-1,2,4-oxadiazol-3-yl]phenyl]methyl]-propanamide]
≥ 80%: pest or weed control at 200 ppm [1] | pest or weed control at 200 ppm [2] | pest or weed control at 200 ppm [3] | inhibition of growth at 20 ppm [4]

CCN(Cc1ccc(-c2noc(C(F)(F)F)n2)cc1)C(=O)C1OCCO1 [Compound 1.513, N-ethyl-N-[[4-[5-(trifluoromethyl)-1,2,4-oxadiazol-3-yl]phenyl]methyl]-1,3-dioxolane-2-carboxamide]
≥ 80%: pest or weed control at 200 ppm [1] | pest or weed control at 200 ppm [2] | pest or weed control at 200 ppm [3] | inhibition of growth at 20 ppm [4]

O=C(NC1CC1)N(Cc1ccc(-c2noc(C(F)(F)F)n2)cc1)C1CC1 [Compound 3.36, 1,3-dicyclopropyl-1-[[4-[5-(trifluoromethyl)-1,2,4-oxadiazol-3-yl]phenyl]methyl]urea]
≥ 80%: pest or weed control at 200 ppm [1] | pest or weed control at 200 ppm [2] | pest or weed control at 200 ppm [3] | inhibition of growth at 20 ppm [4]

CCN(Cc1ccc(-c2noc(C(F)(F)F)n2)cc1)C(=O)C1CCC1 [Compound 1.498, N-ethyl-N-[[4-[5-(trifluoromethyl)-1,2,4-oxadiazol-3-yl]phenyl]methyl]-cyclobulane-carboxamide]
≥ 80%: pest or weed control at 200 ppm [1] | pest or weed control at 200 ppm [2] | pest or weed control at 200 ppm [3] | inhibition of growth at 20 ppm [4]

C=CCCC(=O)N(Cc1ccc(-c2noc(C(F)(F)F)n2)cc1)OC [Compound 1.17, N-methoxy-N-[[4-[5-(trifluoromethyl)-1,2,4-oxadiazol-3-yl]phenyl]methyl]-pent-4-enamide]
≥ 80%: pest or weed control at 200 ppm [1] | pest or weed control at 200 ppm [2] | pest or weed control at 200 ppm [3] | inhibition of growth at 20 ppm [4]

COCC(=O)N(OC)C(C)c1ccc(-c2noc(C(F)(F)F)n2)cc1 (centres unmarked) [Compound 1.253, N,2-dimethoxy-N-(1-[4-[5-(trifluoromethyl)-1,2,4-oxadiazol-3-yl]phenyl]ethyl]-acetamide]
≥ 80%: pest or weed control at 200 ppm [1] | pest or weed control at 200 ppm [2] | pest or weed control at 200 ppm [3] | inhibition of growth at 20 ppm [4]

O=C(C1CCCC1)N(Cc1ccc(-c2noc(C(F)(F)F)n2)cc1)C1CC1 [Compound 1.100, N-cyclopropyl-N-[[4-[5-(trifIuoromethyl)-1,2,4-oxadiazol-3-yl]phenyl]methyl]-cyclopentane-carboxamide]
≥ 80%: pest or weed control at 200 ppm [1] | pest or weed control at 200 ppm [2] | pest or weed control at 200 ppm [3] | inhibition of growth at 20 ppm [4]

C=CCNC(=O)N(Cc1ccc(-c2noc(C(F)(F)F)n2)cc1)OC [Compound 3.20, 3-allyl-1-methoxy-1-[[4-[5-(trifluoromethyl)-1,2,4-oxadiazol-3-yl]phenyl]methyl]urea]
≥ 80%: pest or weed control at 200 ppm [1] | pest or weed control at 200 ppm [2] | pest or weed control at 200 ppm [3] | inhibition of growth at 20 ppm [4]

CC1(C(=O)N(O)Cc2ccc(-c3noc(C(F)(F)F)n3)cc2)COC1 [Compound 1.766, N-hyd roxy-3-methyl-N-[[4-[5-(trifluoromethyl)-1,2,4-oxadiazol-3-yl]phenyl]methyl]-oxetane-3-c arboxamide]
≥ 80%: pest or weed control at 200 ppm [1] | pest or weed control at 200 ppm [2] | pest or weed control at 200 ppm [3] | inhibition of growth at 20 ppm [4]

— patent US11180462B2, “Microbiocidal oxadiazole derivatives” (SYNGENTA PARTICIPATIONS AG, priority 2015, dated 2021)
